According to article PMC4893642 (Theranostics, 2016):
“And” between values parts separate entries of the source, which are not always exact repeats. Equal values may be shown once.

Experiments:
[1] = Ex vivo whole body biodistribution in mice
CB1 receptors = CB1 receptors (Homo sapiens, UniProt P21554); assay: CB1 agonist/antagonist test; type: cell-based; settings: at concentrations up to 30 µM
CB2 receptors = CB2 receptors (Homo sapiens, UniProt P34972); assay: CB2 agonist/antagonist test; type: cell-based; settings: at concentrations up to 30 µM
Sequence of CB2 receptors (P34972 whole entry): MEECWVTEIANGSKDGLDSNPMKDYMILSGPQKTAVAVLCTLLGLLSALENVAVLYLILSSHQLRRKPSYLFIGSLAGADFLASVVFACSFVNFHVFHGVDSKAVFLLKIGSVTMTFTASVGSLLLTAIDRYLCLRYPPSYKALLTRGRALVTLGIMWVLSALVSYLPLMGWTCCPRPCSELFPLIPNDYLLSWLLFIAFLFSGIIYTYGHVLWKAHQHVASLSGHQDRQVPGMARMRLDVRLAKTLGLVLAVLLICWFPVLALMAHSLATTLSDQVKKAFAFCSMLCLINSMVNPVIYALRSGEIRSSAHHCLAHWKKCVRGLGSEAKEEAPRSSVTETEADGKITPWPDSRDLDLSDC

MAGL = molecular target: T1, MAGL (Rattus norvegicus, UniProt Q8R431); settings: 30 min i.v. before injection
T1 sequence (Q8R431 1-303): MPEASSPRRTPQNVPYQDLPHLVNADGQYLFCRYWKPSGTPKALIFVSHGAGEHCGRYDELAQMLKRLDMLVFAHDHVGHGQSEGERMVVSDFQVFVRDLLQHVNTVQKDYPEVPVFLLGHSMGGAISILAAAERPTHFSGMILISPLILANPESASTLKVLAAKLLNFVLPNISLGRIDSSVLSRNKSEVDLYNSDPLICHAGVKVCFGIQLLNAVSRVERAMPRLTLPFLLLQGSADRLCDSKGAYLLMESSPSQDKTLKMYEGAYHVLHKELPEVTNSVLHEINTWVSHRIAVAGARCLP

human recombinant MAGL = molecular target: T2, human recombinant MAGL (Homo sapiens, UniProt Q99685); assay: In vitro MAGL inhibition enzyme assay; type: biochemical; settings: 4-nitrophenylacetate substrate
T2 sequence (Q99685 1-303): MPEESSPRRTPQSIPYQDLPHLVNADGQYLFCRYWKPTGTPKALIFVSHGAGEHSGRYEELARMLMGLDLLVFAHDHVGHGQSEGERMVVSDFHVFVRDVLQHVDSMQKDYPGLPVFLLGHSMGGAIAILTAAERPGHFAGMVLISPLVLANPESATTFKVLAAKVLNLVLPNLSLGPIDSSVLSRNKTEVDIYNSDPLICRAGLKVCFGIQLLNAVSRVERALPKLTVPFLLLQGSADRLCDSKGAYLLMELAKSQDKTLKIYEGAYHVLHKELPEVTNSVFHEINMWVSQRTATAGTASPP

FAAH = molecular target: T3, FAAH (Homo sapiens, UniProt O00519); assay: In vitro FAAH inhibition enzyme assay; type: biochemical; settings: read-out: inhibition of FAAH enzyme
T3 sequence (O00519 1-579): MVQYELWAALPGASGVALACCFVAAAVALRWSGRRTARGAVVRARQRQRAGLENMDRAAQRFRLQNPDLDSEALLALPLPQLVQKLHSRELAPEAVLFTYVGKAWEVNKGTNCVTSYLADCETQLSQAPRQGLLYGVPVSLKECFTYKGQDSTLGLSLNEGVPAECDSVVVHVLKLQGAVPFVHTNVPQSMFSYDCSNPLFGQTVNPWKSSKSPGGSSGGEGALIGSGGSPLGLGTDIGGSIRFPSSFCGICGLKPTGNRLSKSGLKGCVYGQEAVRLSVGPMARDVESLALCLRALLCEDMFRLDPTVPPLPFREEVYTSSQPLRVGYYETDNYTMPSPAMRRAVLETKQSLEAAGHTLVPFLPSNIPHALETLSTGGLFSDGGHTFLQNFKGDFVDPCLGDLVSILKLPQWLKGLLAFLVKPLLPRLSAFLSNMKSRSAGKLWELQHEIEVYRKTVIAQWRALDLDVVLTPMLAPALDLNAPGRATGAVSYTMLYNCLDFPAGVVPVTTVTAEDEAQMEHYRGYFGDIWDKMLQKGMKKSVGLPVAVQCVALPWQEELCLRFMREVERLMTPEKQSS

Sequence of CB1 receptors (P21554 whole entry): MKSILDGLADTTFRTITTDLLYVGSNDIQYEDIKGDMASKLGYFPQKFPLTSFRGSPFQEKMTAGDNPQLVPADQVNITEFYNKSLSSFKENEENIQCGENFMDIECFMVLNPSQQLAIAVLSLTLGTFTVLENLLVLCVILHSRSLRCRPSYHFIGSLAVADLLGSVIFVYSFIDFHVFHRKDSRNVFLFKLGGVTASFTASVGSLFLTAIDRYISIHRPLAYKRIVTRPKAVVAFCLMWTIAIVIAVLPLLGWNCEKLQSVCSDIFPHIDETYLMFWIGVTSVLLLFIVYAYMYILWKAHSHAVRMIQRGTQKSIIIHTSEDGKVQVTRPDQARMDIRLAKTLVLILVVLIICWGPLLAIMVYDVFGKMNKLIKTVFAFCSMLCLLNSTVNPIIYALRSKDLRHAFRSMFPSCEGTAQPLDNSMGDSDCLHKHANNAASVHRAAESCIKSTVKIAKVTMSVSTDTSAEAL

Row | uptake in the liver, kidneys and small intestine [1] | reduction of [11C]5f uptake in cerebellum by pretreatment (MAGL; rat, blocker 1 mg/kg) | reduction of [11C]5f uptake in cerebral cortex by pretreatment (MAGL; rat, blocker 1 mg/kg) | reduction of [11C]5f whole brain uptake by pretreatment (MAGL; rat, blocker 1 mg/kg) | IC50 (human recombinant MAGL) | inhibition at 0.5 µM (FAAH) | SMILES | CB1 receptor agonism or antagonism (CB1 receptors) | CB2 receptor agonism or antagonism (CB2 receptors) | effect on [11C]SAR127303 uptake and distribution in rat brain (MAGL; blocker 3 mg/kg)
1 | High uptake | – | – | – | – | – | O=C(OC(C(F)(F)F)C(F)(F)F)N1CCC(CNS(=O)(=O)c2ccc(Cl)cc2)CC1 [Compound 5a, 1,1,1,3,3,3-hexafluoropropan-2-yl 4-(((4-chlorophenyl)sulfonamido)methyl)piperidine-1-carboxylate] | No significant CB1 and CB2 receptors agonism or antagonism | No significant CB1 and CB2 receptors agonism or antagonism | –
2 | High uptake | 53% | 42% | 48% | 39.3 nM and 35.9 nM | 75% | O=C(N1CCC(CNS(=O)(=O)c2ccc(Cl)cc2)CC1)n1cncn1 [Compound 5f, N-((1-(1H-1,2,4-triazole-1-carbonyl)piperidin-4-yl)methyl)-4-chlorobenzenesulfonamide] | No significant CB1 and CB2 receptors agonism or antagonism | No significant CB1 and CB2 receptors agonism or antagonism | –
3 | – | – | – | – | – | – | NC(=O)c1cccc(-c2cccc(OC(=O)NC3CCCCC3)c2)c1 [URB597, reference compound] | – | – | no effect on the uptake and distribution in rat brain
